Read-outs that look alike come from different tables or passages of the source.
How the values were obtained:
[1] = cited from earlier work
[2] = Safety and tolerability in study B8271007; assay type: in vivo, human; conditions: single oral dose of 2 mg midazolam alone (period 1)
CSF Aβ = conditions: cited from earlier work; for Reduction of CSF Aβ40: healthy adults and older subjects combined; for Average reduction of steady state CSF Aβ40: mild-to-moderate AD patients; for Reduction in CSF Aβ: healthy older subjects
BACE1 over BACE2 = conditions: cited from earlier work
[3] = test system: fur, hair and skin pigmentation; conditions: cited from earlier work; for Fur and skin pigmentation: mice, rats, or dogs following chronic dosing regimens
BACE1 over CatD = conditions: cited from earlier work

Compound: NC1=N[C@@]2(c3cc(NC(=O)c4ccc(F)cn4)ccc3F)COC[C@H]2CS1 [LY2886721]
- Liver toxicity in clinical studies ([1]; Phase II study): concerns over abnormal liver enzymes leading to the termination

Compound: Cc1ncc2n1-c1ccc(Cl)cc1C(c1ccccc1F)=NC2 [midazolam, reference compound]
- TEAEs deemed treatment related [2]: none
- TEAEs reported [2]: three

Compound: C[C@@]1(c2cc(NC(=O)c3ccc(C#N)cn3)ccc2F)C=CSC(N)=N1 [JNJ-54861911]
- Liver toxicity in clinical studies ([1]; Phase II and Phase IIb/III studies): concerns over abnormal liver enzymes leading to the termination
- Reduction of CSF Aβ40 (CSF Aβ; 5 mg QD): approximately 50%
- Reduction of CSF Aβ40 (CSF Aβ; 25 mg QD): ~80%

Compound: C[C@@]1(c2nc(NC(=O)c3ncc(C(F)(F)F)cc3Cl)ccc2F)CO[C@@](C)(C(F)(F)F)C(N)=N1 [CNP520]
- Liver toxicity in clinical studies [1]: liver toxicity was not reported
- Selectivity for BACE1 over BACE2 in vitro (BACE1 over BACE2): 3 fold
- Hair depigmentation ([3]; long-term treatment in mice or dogs): did not result in any hair depigmentation

Compound: CN1C(=N)N[C@](C)(c2cc(NC(=O)c3ccc(F)cn3)ccc2F)CS1(=O)=O [MK-8931]
- Liver toxicity in clinical studies [1]: liver toxicity was not reported
- Average reduction of steady state CSF Aβ40 (CSF Aβ; 12 mg QD): 57%
- Average reduction of steady state CSF Aβ40 (CSF Aβ; 40 mg QD): 79%
- Hair depigmentation ([3]; animal studies): hair depigmentation

Compound: Cc1cc(C#N)cnc1C(=O)Nc1ccc(F)c([C@]2(C)CO[C@@](C)(C(F)(F)F)C(N)=N2)c1 [NB-360]
- Fur and skin pigmentation [3]: fur and skin pigment loss

Compound: CC#Cc1cncc(-c2ccc3c(c2)[C@@]2(N=C(C)C(N)=N2)[C@]2(CC[C@H](OC)CC2)C3)c1 [AZD3293]
- Liver toxicity in clinical studies [1]: liver toxicity was not reported
- Selectivity for BACE1 over CatD (BACE1 over CatD): good selectivity
- Reduction in CSF Aβ (CSF Aβ; 15 mg QD): approximately 51%
- Reduction in CSF Aβ (CSF Aβ; 50 mg QD): ~76%
- Hair depigmentation ([3]; animal studies): hair depigmentation
- Fur and skin pigmentation [3]: fur and skin pigment loss
